Source: patent US20170121295A1, “POLYCYCLIC LPA1 ANTAGONIST AND USES THEREOF” (AMIRA PHARMACEUTICALS, INC., priority 2010, published 2017)

Key:
[1] = Metabolites generated in vivo (rat bile and urine, rat and dog plasma)
Procedure: Compound 2 (2 mg/kg) was administered intravenously (IV) to fasted rats as a solution in 0.9% saline via a bolus injection into the jugular vein (2 mg/mL; […]).
Rats with surgically placed bile duct and jugular vein cannula were purchased from Charles River Laboratories and allowed to acclimate for 2 days. Compound 2 was intravenously dosed (2 mg/kg) to three rats as a solution in 0.9% saline (2 mg/mL; 1 mL/kg). Bile samples were collected at time-points 0-2, 2-5 and 5-8, and urine samples were collected at time-points 0-4 and 4-8 hrs post-dose in 8 mL scintillation vials and stored at −40° C. until analysis.
Concentrations of Compound 1 in rat plasma were determined by LC-MS/MS after protein precipitation. Rat plasma (100 μL) was treated with 400 μL of internal standard solution (ISTD, buspirone in acetonitrile containing 1.5% acetic acid) to precipitate proteins. Samples were vortexed and then centrifuged for 10 min at approximately 4,000 rpm (3700×g) at 4° C. (Beckman centrifuge, Brea, Calif.).
Parent/metabolite analysis was conducted in the positive ion mode (ESI) by multiple reaction monitoring of parent. The mobile phases contained 10 mM ammonium acetate in water with 0.05% formic acid (solvent A) and 10 mM ammonium acetate in 50% acetonitrile/50% methanol with 0.05% formic acid (solvent B). For Compound 1, the flow rate was maintained at 1 mL/min and the total run time was 2.5 min. Analytes were separated on a YMC ODS-AQ column (2.1×150 mm; 3 μm) and eluted with a linear gradient as follows: • 1. mobile phase was held for 0.5 min at 5% B, • 2. B was increased from 5% to 95% over the next 0.2 min, • 3. B was held constant for 1.3 min at 95%, and • 4. B was returned to the initial gradient conditions.
For metabolite quantitation, the flow rate was maintained at 0.25 mL/min and the total run time was 60 min. Analytes were separated using a linear gradient as follows: • 1. mobile phase was held for 5 min at 5% B, • 2. B was increased from 5% to 95% over the next 45 min. • 3. B was held constant for 5 min at 95%, and • 4. B was returned to the initial gradient conditions

Human LPA1 = molecular target: T1, Human LPA1 (Homo sapiens, UniProt Q92633); assay: LPA1 Calcium Flux Assay; type: cell-based; conditions: human LPA1 expressing CHO cells, 10 nM LPA; read-out: Ca Flux IC50 LPA1
T1 construct: the full-length cDNA for human LPA1 was obtained by PCR of the reverse transcription reaction; expressed in transfected cells
T1 sequence (Q92633 whole entry): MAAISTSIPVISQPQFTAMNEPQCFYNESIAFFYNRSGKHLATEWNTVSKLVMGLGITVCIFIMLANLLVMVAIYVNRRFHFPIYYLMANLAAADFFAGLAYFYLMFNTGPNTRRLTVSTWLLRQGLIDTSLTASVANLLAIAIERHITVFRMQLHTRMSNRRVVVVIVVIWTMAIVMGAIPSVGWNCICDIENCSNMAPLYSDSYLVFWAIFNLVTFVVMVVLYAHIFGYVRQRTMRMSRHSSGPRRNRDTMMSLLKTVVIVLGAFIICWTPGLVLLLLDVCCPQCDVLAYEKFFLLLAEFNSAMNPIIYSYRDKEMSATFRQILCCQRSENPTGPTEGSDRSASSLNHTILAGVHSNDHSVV
Procedure: A 1.1 kb cDNA encoding the human LPA1 receptor was cloned from human lung. Human lung RNA (Clontech Laboratories, Inc. USA) was reverse transcribed using the RETROscript kit (Ambion, Inc.) and the full-length cDNA for human LPA1 was obtained by PCR of the reverse transcription reaction. The nucleotide sequence of the cloned human LPA1 was determined by sequencing and confirmed to be identical to the published human LPA1 sequence (An et al. Biochem. Biophys. Res. Commun. 231:619 (1997). The cDNA was cloned into the pCDNA5/FRT expression plasmid and transfected in CHO cells using lipofectamine 2000 (Invitrogen Corp., USA). Clones stably expressing human LPA1 were selected using hygromycin and identified as cells that show Ca-influx in response to LPA.
Human LPA1 or LPA3 expressing CHO cells are seeded at 20,000-45,000 cells per well in a 96-well poly-D-lysine coated plate one or two days before the assay. Prior to the assay, the cells are washed once with PBS and then cultured in serum-free media overnight. On the day of the assay, a calcium indicator dye (Calcium 4, Molecular Devices) in assay buffer (HBSS with Ca^2+ and Mg^2+ and containing 20 mM Hepes and 0.3% fatty-acid free human serum albumin) is added to each well and incubation continued for 1 hour at 37° C. 10 μl of test compound in 2.5% DMSO are added to the cells and incubation continued at room temperature for 30 minutes. Cells are the stimulated by the addition of 10 nM LPA and intracellular Ca^2+ measured using the Flexstation 3 (Molecular Devices). IC50s are determined using Graphpad prism analysis of drug titration curves.

Cc1noc(-c2ccc(-c3ccc(C4(C(=O)O)CC4)cc3)cc2)c1NC(=O)O[C@H](C)c1ccccc1 [Compound 1, 1-{4′-[3-methyl-4-((R)-1-phenyl-ethoxycarbonylamino)-isoxazol-5-yl]-biphenyl-4-yl}-cyclopropanecarboxylic acid]
GSH adduct in rat bile ([1]; in vivo): neither GSH adduct is observed
primary amine (decarboxylation) and its secondary metabolites ([1]; plasma (rat & dog), rat bile or urine): Neither the primary amine (i.e. decarboxylation) nor its secondary metabolites (glycosylation or glucuronidation) are observed
IC50 (Human LPA1): < 200 nM
